Laboratory results as given in ChEMBL document CHEMBL4419169, “Novel Ferroportin Inhibitors” (2018).
Activity calls are given as the source filed them. The calls are words filed in the database; no cut-off is given here.

What was measured:
[1] = target: T1, Ferroportin (Mus musculus) (UniProt Q9JHI9); assay: Inhibition of ferroportin in mouse J774 cells assessed as induce ferroportin ubiquitination and degradation at 0.5 uM incubated for 120 mins by immunoprecipitation assay; format: cell-based
T1 sequence (whole entry): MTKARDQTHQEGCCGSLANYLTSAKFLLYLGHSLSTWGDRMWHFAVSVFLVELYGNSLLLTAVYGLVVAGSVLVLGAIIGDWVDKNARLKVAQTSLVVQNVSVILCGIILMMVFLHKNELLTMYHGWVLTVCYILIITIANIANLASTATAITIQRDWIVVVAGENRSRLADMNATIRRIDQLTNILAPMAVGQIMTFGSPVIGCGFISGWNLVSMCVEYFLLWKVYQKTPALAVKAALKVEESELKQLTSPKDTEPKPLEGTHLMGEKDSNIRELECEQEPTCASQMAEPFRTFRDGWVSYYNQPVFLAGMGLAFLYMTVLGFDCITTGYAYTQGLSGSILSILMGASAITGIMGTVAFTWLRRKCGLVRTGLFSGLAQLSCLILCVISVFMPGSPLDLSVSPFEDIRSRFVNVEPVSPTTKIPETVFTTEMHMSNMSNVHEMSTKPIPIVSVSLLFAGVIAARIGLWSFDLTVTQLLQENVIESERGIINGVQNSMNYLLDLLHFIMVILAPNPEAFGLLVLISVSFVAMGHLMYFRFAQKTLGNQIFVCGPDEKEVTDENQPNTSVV

[2] = target: T1, Ferroportin (Mus musculus); assay: Inhibition of ferroportin in mouse J774 cells assessed as induce ferroportin ubiquitination and degradation at 0.5 uM incubated for 10 mins by immunoprecipitation assay; format: cell-based
Mus musculus [3] = assay: Disease modifying capacity in mouse model of transfusion-independent beta-thalassemia intermedia assessed as decrease in bone marrow ROS levels level at 60 mg/kg, po BID for 27 days relative to control; format: functional; parameters: scale not given: the % may be the effect or the level left
[4] = target: T1, Ferroportin (Mus musculus); assay: Inhibition of ferroportin in mouse J774 cells assessed as induce ferroportin ubiquitination and degradation at 0.1 uM incubated for 120 mins by immunoprecipitation assay; format: cell-based
Mus musculus [5] = assay: Prevention of hyperferremia in iron overloaded beta2-microglobulin deficient male mouse assessed as reduction in serum iron level at 60 mg/kg, po measured after 3 hrs relative to control; format: functional; parameters: scale not given: the % may be the effect or the level left
[6] = target: T1, Ferroportin (Mus musculus); assay: Inhibition of ferroportin in mouse J774 cells assessed as induce ferroportin ubiquitination and degradation at 0.1 uM incubated for 10 mins by immunoprecipitation assay; format: cell-based
Mus musculus [7] = assay: Prevention of hyperferremia in iron overloaded beta2-microglobulin deficient female mouse assessed as reduction in serum iron level at 60 mg/kg, po measured after 3 hrs relative to control; format: functional; parameters: scale not given: the % may be the effect or the level left
[8] = target: T1, Ferroportin (Mus musculus); assay: Inhibition of ferroportin in mouse J774 cells assessed as induce ferroportin ubiquitination and degradation at 0.2 uM incubated for 120 mins by immunoprecipitation assay; format: cell-based
[9] = target: T1, Ferroportin (Mus musculus); assay: Inhibition of ferroportin in mouse J774 cells assessed as induce ferroportin ubiquitination and degradation at 0.2 uM incubated for 10 mins by immunoprecipitation assay; format: cell-based
[10] = target: T1, Ferroportin (Mus musculus); assay: Inhibition of ferroportin in mouse J774 cells assessed as induce ferroportin ubiquitination and degradation at 0.04 uM incubated for 10 mins by immunoprecipitation assay; format: cell-based
[11] = target: T1, Ferroportin (Mus musculus); assay: Inhibition of ferroportin in mouse J774 cells assessed as induce ferroportin ubiquitination and degradation at 0.04 uM incubated for 120 mins by immunoprecipitation assay; format: cell-based
Mus musculus [12] = assay: Disease modifying capacity in mouse model of transfusion-independent beta-thalassemia intermedia assessed as increase in blood erythrocyte counts at 20 mg/kg, po BID for 20 days relative to control; format: functional
Mus musculus [13] = assay: Decrease in serum iron in mouse model of transfusion-independent beta-thalassemia intermedia at 20 mg/kg, po BID for 20 days relative to control; format: functional; parameters: scale not given: the % may be the effect or the level left
[14] = target: T1, Ferroportin (Mus musculus); assay: Inhibition of ferroportin in mouse J774 cells assessed as induce ferroportin ubiquitination and degradation at […] incubated for 10 mins by immunoprecipitation assay; format: cell-based
Mus musculus [15] = assay: Prevention of hyperferremia in iron overloaded beta2-microglobulin deficient male mouse assessed as reduction in serum iron level at 20 mg/kg, po measured after 3 hrs relative to control; format: functional; parameters: scale not given: the % may be the effect or the level left
Mus musculus [16] = assay: Disease modifying capacity in mouse model of transfusion-independent beta-thalassemia intermedia assessed as decrease in [58Fe] spleen iron content at 60 mg/kg, po BID for 20 days relative to control; format: functional; parameters: scale not given: the % may be the effect or the level left
Rattus norvegicus [17] = assay: Prevention of iron absorption in anemic Wistar rat model of iron absorption assessed as inhibition of increase in serum iron at 10 mg/kg, po pre-dosed 1 hr before ferrous sulfate dosing and measured 3 hours after iron dosing; format: functional
Mus musculus [18] = assay: Disease modifying capacity in mouse model of transfusion-independent beta-thalassemia intermedia assessed as decrease in RDW level at 60 mg/kg, po BID for 20 days relative to control; format: functional; parameters: scale not given: the % may be the effect or the level left
Mus musculus [19] = assay: Disease modifying capacity in mouse model of transfusion-independent beta-thalassemia intermedia assessed as increase in hematocrit levels at 20 mg/kg, po BID for 20 days relative to control; format: functional
Mus musculus [20] = assay: Disease modifying capacity in mouse model of transfusion-independent beta-thalassemia intermedia assessed as increase in blood erythrocyte counts at 60 mg/kg, po BID for 20 days relative to control; format: functional
Mus musculus [21] = assay: Prevention of hyperferremia in iron overloaded beta2-microglobulin deficient female mouse assessed as reduction in serum iron level at 20 mg/kg, po measured after 3 hrs relative to control; format: functional; parameters: scale not given: the % may be the effect or the level left
Mus musculus [22] = assay: Induction of hypoferremia in wild type C57BL/6 mouse assessed as decrease in serum iron levels at 100 mg/kg, po measured after 3 hrs post dose; format: functional; parameters: scale not given: the % may be the effect or the level left
Mus musculus [23] = assay: Disease modifying capacity in mouse model of transfusion-independent beta-thalassemia intermedia assessed as decrease in spleen erythroferrone-mRNA at 20 mg/kg, po BID for 20 days relative to control; format: functional; parameters: scale not given: the % may be the effect or the level left
Mus musculus [24] = assay: Induction of hypoferremia in wild type C57BL/6 mouse assessed as decrease in serum iron levels at 10 mg/kg, po measured after 3 hrs post dose; format: functional; parameters: scale not given: the % may be the effect or the level left
Mus musculus [25] = assay: Disease modifying capacity in mouse model of transfusion-independent beta-thalassemia intermedia assessed as decrease in leukocyte counts level at 20 mg/kg, po BID for 20 days relative to control; format: functional; parameters: scale not given: the % may be the effect or the level left
Mus musculus [26] = assay: Disease modifying capacity in mouse model of transfusion-independent beta-thalassemia intermedia assessed as prevention of liver [58Fe] loading at 20 mg/kg, po BID for 20 days relative to control; format: functional
Mus musculus [27] = assay: Disease modifying capacity in mouse model of transfusion-independent beta-thalassemia intermedia assessed as prevention of liver [58Fe] loading at 60 mg/kg, po BID for 20 days relative to control; format: functional
Mus musculus [28] = assay: Disease modifying capacity in mouse model of transfusion-independent beta-thalassemia intermedia assessed as increase in hematocrit levels at 60 mg/kg, po BID for 20 days relative to control; format: functional
Mus musculus [29] = assay: Disease modifying capacity in mouse model of transfusion-independent beta-thalassemia intermedia assessed as decrease in leukocyte counts level at 60 mg/kg, po BID for 20 days relative to control; format: functional; parameters: scale not given: the % may be the effect or the level left
[30] = target: T1, Ferroportin (Mus musculus); assay: Inhibition of ferroportin in mouse J774 cells assessed as induce ferroportin ubiquitination and degradation at […] incubated for 120 mins by immunoprecipitation assay; format: cell-based
Mus musculus [31] = assay: Disease modifying capacity in mouse model of transfusion-independent beta-thalassemia intermedia assessed as decrease in bone marrow ROS levels level at 60 mg/kg, po BID for 20 days relative to control; format: functional; parameters: scale not given: the % may be the effect or the level left
Mus musculus [32] = assay: Induction of hypoferremia in wild type C57BL/6 mouse assessed as decrease in serum iron levels at 30 mg/kg, po measured after 3 hrs post dose; format: functional; parameters: scale not given: the % may be the effect or the level left
Mus musculus [33] = assay: Disease modifying capacity in mouse model of transfusion-independent beta-thalassemia intermedia assessed as decrease in [58Fe] spleen iron content at 20 mg/kg, po BID for 20 days relative to control; format: functional; parameters: scale not given: the % may be the effect or the level left
Mus musculus [34] = assay: Disease modifying capacity in mouse model of transfusion-independent beta-thalassemia intermedia assessed as decrease in serum erythropoietin at 60 mg/kg, po BID for 20 days relative to control; format: functional; parameters: scale not given: the % may be the effect or the level left
Mus musculus [35] = assay: Disease modifying capacity in mouse model of transfusion-independent beta-thalassemia intermedia assessed as decrease in blood reticulocyte counts at 20 mg/kg, po BID for 20 days relative to control; format: functional; parameters: scale not given: the % may be the effect or the level left
Mus musculus [36] = assay: Decrease in serum iron in mouse model of transfusion-independent beta-thalassemia intermedia at 60 mg/kg, po BID for 20 days relative to control; format: functional; parameters: scale not given: the % may be the effect or the level left
Rattus norvegicus [37] = assay: Prevention of iron absorption in anemic Wistar rat model of iron absorption assessed as inhibition of increase in serum iron at 30 mg/kg, po pre-dosed 1 hr before ferrous sulfate dosing and measured 3 hours after iron dosing; format: functional
Rattus norvegicus [38] = assay: Prevention of iron absorption in anemic Wistar rat model of iron absorption assessed as inhibition of increase in serum iron at 3 mg/kg, po pre-dosed 1 hr before ferrous sulfate dosing and measured 3 hours after iron dosing; format: functional
Mus musculus [39] = assay: Disease modifying capacity in mouse model of transfusion-independent beta-thalassemia intermedia assessed as decrease in RDW level at 20 mg/kg, po BID for 20 days relative to control; format: functional; parameters: scale not given: the % may be the effect or the level left
Mus musculus [40] = assay: Disease modifying capacity in mouse model of transfusion-independent beta-thalassemia intermedia assessed as decrease in serum erythropoietin at 20 mg/kg, po BID for 20 days relative to control; format: functional; parameters: scale not given: the % may be the effect or the level left
Mus musculus [41] = assay: Disease modifying capacity in mouse model of transfusion-independent beta-thalassemia intermedia assessed as decrease in blood reticulocyte counts at 60 mg/kg, po BID for 20 days relative to control; format: functional; parameters: scale not given: the % may be the effect or the level left

In the case of O=C(NCc1ncccc1F)c1coc(CCNCCc2nc3c(Cl)cccc3[nH]2)n1, the inhibition [1] is reported as “Active” and the inhibition [2] is reported as “Active”.

For Cl.Cl.Cl.O=C(NCc1ncccc1F)c1coc(CCNCCc2nc3ccccc3[nH]2)n1 [VAMIFEPORT HYDROCHLORIDE], the Activity (Mus musculus [3]) was 75%, the inhibition [4] was “Active” and the Activity (Mus musculus [5]) was 83%. The inhibition [6] was “Active” and the Activity (Mus musculus [7]) was 74%.

In the case of O=C(NCc1ncccc1F)c1coc(C2CN(CCc3nc4ccccc4[nH]3)C2)n1, the Activity (Mus musculus [5]) is reported as 67%, the inhibition [8] is reported as “Active” and the inhibition [9] is reported as “Active”. The Activity (Mus musculus [7]) was 49%.

O=C(NCc1ncccc1F)c1csc(CCN(CCc2nc3ccccc3[nH]2)CCc2nc3ccccc3[nH]2)n1 was tested, and the inhibition [10] was “Active” and the inhibition [11] was “Active”.

O=C(NCc1ncccc1F)c1cnc(CCNCCc2nc3ccccc3[nH]2)o1 was tested, and the Activity (Mus musculus [12]) was 4%, the Activity (Mus musculus [13]) was 49% and the inhibition [14] was “Active”. For the same compound, the Activity (Mus musculus [15]) was 31%, the Activity (Mus musculus [16]) was 48% and the inhibition in vivo at 10 mg/kg (Rattus norvegicus [17]) was 42.6%. The Activity (Mus musculus [18]) was 16%, the Activity (Mus musculus [19]) was 0% and the Activity (Mus musculus [20]) was 8%. The Activity (Mus musculus [21]) was 31%, the Activity (Mus musculus [22]) was 51% and the Activity (Mus musculus [23]) was 82%. It also gave an Activity (Mus musculus [24]) of 0%, an Activity (Mus musculus [25]) of 32% and an Activity (Mus musculus [26]) of 12%. It also gave an Activity (Mus musculus [27]) of 40%, an Activity (Mus musculus [28]) of 4% and an Activity (Mus musculus [29]) of 44%. The inhibition [30] was “Active”, the Activity (Mus musculus [31]) was 45% and the Activity (Mus musculus [32]) was 28%. It also gave an Activity (Mus musculus [33]) of 14%, an Activity (Mus musculus [34]) of 78% and an Activity (Mus musculus [35]) of 8%. The Activity (Mus musculus [36]) was 66%, the inhibition in vivo at 30 mg/kg (Rattus norvegicus [37]) was 64.9% and the Activity (Mus musculus [7]) was 52%. The inhibition in vivo at 3 mg/kg (Rattus norvegicus [38]) was 2.1%, the Activity (Mus musculus [39]) was 3% and the Activity (Mus musculus [40]) was 64%. The Activity (Mus musculus [41]) was 39%.
